Experimental data as given in patent US12448375B2, “Kinase inhibitors for the treatment of neurodegenerative diseases” (Ohio State Innovation Foundation, priority 2019, dated 2025).

Legend:
Type in all cases: biochemical
Details in all cases: HotSpot radiometric assay, 33P-ATP
[1] = target: T1, JNK3 (Homo sapiens, UniProt P53779); assay: HotSpot Kinase Assay (Reaction Biology Corp.), anti-JNK3 activity
T1 construct: purchased Reaction Biology Corp
Procedure: (§1) The anti-JNK3 activity of compounds prepared as in the previous examples was evaluated using a Reaction Biology Corp. HotSpot Kinase Assay. Base reaction buffer was 20 mM HEPES (4-(2-hydroxyethyl)-1-piperazineethanesulfonic acid) at pH 7.5 with 10 mM MgCl2, 1 mM EGTA (ethylene glycol-bis(β-aminoethyl ether)-N,N,N′,N′-tetracetic acid), 0.02% Brij™ 35, 0.02 mg/mL BSA (bovine serum albumin), 0.1 mM Na3VO4, 2 mM DTT (dithiothreitol), and 1% DMSO. Required cofactors were added individually to each kinase reaction.
(§2) Activity against related enzymes JNK1 and P38a was further assessed using the same assay.

[2] = target: T2, JNK1 (Homo sapiens, UniProt P45983); assay: HotSpot Kinase Assay, JNK1
T2 construct: purchased Reaction Biology Corp
T2 sequence (P45983 whole entry): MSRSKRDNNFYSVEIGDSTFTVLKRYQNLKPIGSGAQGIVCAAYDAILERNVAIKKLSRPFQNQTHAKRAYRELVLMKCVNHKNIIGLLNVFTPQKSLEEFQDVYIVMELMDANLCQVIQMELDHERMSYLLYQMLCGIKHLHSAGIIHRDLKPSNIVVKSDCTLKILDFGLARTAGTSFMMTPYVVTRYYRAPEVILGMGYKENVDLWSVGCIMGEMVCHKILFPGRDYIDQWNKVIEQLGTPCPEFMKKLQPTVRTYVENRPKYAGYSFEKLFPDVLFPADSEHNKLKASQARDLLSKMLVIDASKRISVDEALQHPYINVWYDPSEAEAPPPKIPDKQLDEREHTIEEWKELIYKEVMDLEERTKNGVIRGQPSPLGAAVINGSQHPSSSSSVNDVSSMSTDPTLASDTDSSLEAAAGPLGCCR
Procedure: as §1, §2

[3] = target: T3, p38a (Homo sapiens, UniProt Q16539); assay: HotSpot Kinase Assay, P38a
T3 construct: purchased Reaction Biology Corp
T3 sequence (Q16539 whole entry): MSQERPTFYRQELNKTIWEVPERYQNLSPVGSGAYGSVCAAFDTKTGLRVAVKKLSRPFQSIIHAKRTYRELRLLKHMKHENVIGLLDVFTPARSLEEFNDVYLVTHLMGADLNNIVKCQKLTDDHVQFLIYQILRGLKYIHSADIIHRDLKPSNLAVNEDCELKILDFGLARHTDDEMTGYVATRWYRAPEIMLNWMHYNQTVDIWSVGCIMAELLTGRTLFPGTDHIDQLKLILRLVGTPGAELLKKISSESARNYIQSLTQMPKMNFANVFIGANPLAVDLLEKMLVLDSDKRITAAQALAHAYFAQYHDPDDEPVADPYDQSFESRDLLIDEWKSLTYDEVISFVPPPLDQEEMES
Procedure: as §1, §2

T1 sequence (P53779 whole entry): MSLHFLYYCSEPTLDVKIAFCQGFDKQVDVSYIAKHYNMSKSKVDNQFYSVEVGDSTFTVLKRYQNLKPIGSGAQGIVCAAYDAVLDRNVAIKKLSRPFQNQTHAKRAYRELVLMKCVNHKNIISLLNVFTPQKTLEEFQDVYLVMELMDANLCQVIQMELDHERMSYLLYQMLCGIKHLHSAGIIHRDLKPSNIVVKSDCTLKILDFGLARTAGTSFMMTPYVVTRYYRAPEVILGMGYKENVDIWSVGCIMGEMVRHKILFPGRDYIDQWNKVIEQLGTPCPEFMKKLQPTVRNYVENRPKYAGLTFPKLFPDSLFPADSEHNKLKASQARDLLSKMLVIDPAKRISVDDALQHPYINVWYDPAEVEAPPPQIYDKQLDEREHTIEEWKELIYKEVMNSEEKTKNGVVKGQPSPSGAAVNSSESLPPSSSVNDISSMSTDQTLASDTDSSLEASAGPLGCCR

Row | Compound | IC50 [1] | IC50 [2] | IC50 [3]
1 | CC(C)NC(=O)c1cc(-n2ncc3nc(Oc4ccccc4Cl)ncc32)cs1 [Compound 47, 4-(5-(2-chlorophenoxy)-1H-pyrazolo[4,3-d]pyrimidin-1-yl)-N-isopropylthiophene-2-carboxamide] | > 1000 nM | > 1000 nM | > 1000 nM
2 | COCC(COC)NC(=O)c1cc(-n2ncc3nc(Oc4ccccc4Cl)ccc32)cs1 [Compound 48, 4-(5-(2-chlorophenoxy)-1H-pyrazolo[4,3-b]pyridin-1-yl)-N-(1,3-dimethoxypropan-2-yl)thiophene-2-carboxamide] | > 1000 nM | > 1000 nM | > 1000 nM
3 | CNC(=O)c1cc(-n2ncc3nc(Oc4ccccc4Cl)ccc32)cs1 [Compound 49, 4-(5-(2-chlorophenoxy)-1H-pyrazolo[4,3-b]pyridin-1-yl)-N-methylthiophene-2-carboxamide] | 200 to 1000 nM | > 1000 nM | 200 to 1000 nM
4 | O=C(NC(CO)CO)c1cc(-n2ncc3nc(Nc4ccccc4Cl)ccc32)cs1 [Compound 53, 4-(5-((2-chlorophenyl)amino)-1H-pyrazolo[4,3-b]pyridin-1-yl)-N-(1,3-dihydroxypropan-2-yl)thiophene-2-carboxamide] | < 200 nM | > 1000 nM | > 1000 nM
5 | CC(C)NC(=O)c1cc(-n2ncc3nc(Nc4ccccc4Cl)ccc32)cs1 [Compound 54, 4-(5-((2-chlorophenyl)amino)-1H-pyrazolo[4,3-b]pyridin-1-yl)-N-isopropylthiophene-2-carboxamide] | < 200 nM | 200 to 1000 nM | 200 to 1000 nM
6 | COCCNC(=O)c1cc(-n2ncc3nc(Nc4ccccc4Cl)ccc32)cs1 [Compound 55, 4-(5-((2-chlorophenyl)amino)-1H-pyrazolo[4,3-b]pyridin-1-yl)-N-(2-methoxyethyl)thiophene-2-carboxamide] | < 200 nM | > 1000 nM | 200 to 1000 nM
7 | COCCNC(=O)c1cc(-n2ncc3nc(Oc4ccccc4Cl)ccc32)cs1 [Compound 56, 4-(5-(2-chlorophenoxy)-1H-pyrazolo[4,3-b]pyridin-1-yl)-N-(2-methoxyethyl)thiophene-2-carboxamide] | < 200 nM | 200 to 1000 nM | 200 to 1000 nM
8 | CNC(=O)c1cc(-n2ncc3cc(Oc4ccccc4Cl)cnc32)cs1 [Compound 64, 4-(5-(2-chlorophenoxy)-1H-pyrazolo[3,4-b]pyridin-1-yl)-N-methylthiophene-2-carboxamide] | < 200 nM | 200 to 1000 nM | 200 to 1000 nM
9 | CNC(=O)c1cc(-n2ncc3cc(Nc4ccccc4Cl)cnc32)c(C)s1 [Compound 65, 4-(5-((2-chlorophenyl)amino)-1H-pyrazolo[3,4-b]pyridin-1-yl)-N,5-dimethylthiophene-2-carboxamide] | < 200 nM | 200 to 1000 nM | < 200 nM
10 | Cc1sc(C(=O)NC2COC2)cc1-n1ncc2cc(Nc3ccccc3Cl)cnc21 [Compound 68, 4-(5-((2-chlorophenyl)amino)-1H-pyrazolo[3,4-b]pyridin-1-yl)-5-methyl-N-(oxetan-3-yl)thiophene-2-carboxamide] | < 200 nM | 200 to 1000 nM | > 1000 nM
11 | CC1COC(NC(=O)c2cc(-n3ncc4cc(Nc5ccccc5Cl)cnc43)cs2)=N1 (stereo not drawn) [Compound 69, 4-(5-((2-chlorophenyl)amino)-1H-pyrazolo[3,4-b]pyridin-1-yl)-N-(4-methyl-4,5-dihydrooxazol-2-yl)thiophene-2-carboxamide] | < 200 nM | 200 to 1000 nM | 200 to 1000 nM
12 | O=C(NC1COC1)c1cc(-n2ncc3cc(Oc4ccccc4Cl)cnc32)cs1 [Compound 70, 4-(5-(2-chlorophenoxy)-1H-pyrazolo[3,4-b]pyridin-1-yl)-N-(oxetan-3-yl)thiophene-2-carboxamide] | < 200 nM | > 1000 nM | > 1000 nM
13 | CC(=O)N1CC(NC(=O)c2cc(-n3ncc4cc(Nc5ccccc5Cl)cnc43)cs2)C1 [Compound 71, N-(1-acetylazetidin-3-yl)-4-(5-((2-chlorophenyl)amino)-1H-pyrazolo[3,4-b]pyridin-1-yl)thiophene-2-carboxamide] | < 200 nM | 200 to 1000 nM | < 200 nM
14 | O=C(NCCCF)c1cc(-n2ncc3cc(Oc4ccccc4Cl)cnc32)cs1 [Compound 72, 4-(5-(2-chlorophenoxy)-1H-pyrazolo[3,4-b]pyridin-1-yl)-N-(3-fluoropropyl)thiophene-2-carboxamide] | < 200 nM | 200 to 1000 nM | 200 to 1000 nM
15 | CNC(=O)c1cc(-n2ncc3cc(N(C)c4ccccc4OC)c(F)cc32)cs1 [Compound 75, 4-(6-fluoro-5-((2-methoxyphenyl)(methyl)amino)-1H-indazol-1-yl)-N-methylthiophene-2-carboxamide] | < 200 nM | 200 to 1000 nM | 200 to 1000 nM
16 | CNC(=O)c1cc(-n2ncc3cc(Nc4ccccc4Cl)c(C)nc32)cs1 [Compound 76, 4-(5-((2-chlorophenyl)amino)-6-methyl-1H-pyrazolo[3,4-b]pyridin-1-yl)-N-methylthiophene-2-carboxamide] | < 200 nM | 200 to 1000 nM | 200 to 1000 nM
17 | COc1ccccc1Nc1cc2cnn(-c3csc(C(=O)NC4COC4)c3)c2cc1F [Compound 77, 4-(6-fluoro-5-((2-methoxyphenyl)amino)-1H-indazol-1-yl)-N-(oxetan-3-yl)thiophene-2-carboxamide] | < 200 nM | > 1000 nM | < 200 nM
18 | COc1cc2c(cnn2-c2csc(C(=O)NC3COC3)c2)cc1Nc1ccccc1Cl [Compound 78, 4-(5-((2-chlorophenyl)amino)-6-methoxy-1H-indazol-1-yl)-N-(oxetan-3-yl)thiophene-2-carboxamide] | < 200 nM | > 1000 nM | > 1000 nM
19 | Cc1nc2c(cnn2-c2csc(C(=O)NC3(C)COC3)c2)cc1Nc1ccccc1Cl [Compound 79, 4-(5-((2-chlorophenyl)amino)-6-methyl-1H-pyrazolo[3,4-b]pyridin-1-yl)-N-(3-methyloxetan-3-yl)thiophene-2-carboxamide] | 200 to 1000 nM | > 1000 nM | > 1000 nM
20 | CNC(=O)c1cc(-n2ncc3cc(Nc4ccccc4OC)c(F)cc32)cs1 [Compound 80, 4-(6-fluoro-5-((2-methoxyphenyl)amino)-1H-indazol-1-yl)-N-methylthiophene-2-carboxamide] | < 200 nM | > 1000 nM | 200 to 1000 nM

Second part, the molecule after the results:

Row | IC50 [1] | IC50 [2] | IC50 [3] | Compound
21 | < 200 nM | < 200 nM | < 200 nM | O=C(N[C@H]1CCOC1)c1cc(-n2ncc3cc(Nc4ccccc4Cl)c(F)cc32)cs1 [Compound 32, (S)-4-(5-((2-chlorophenyl)amino)-6-fluoro-1H-indazol-1-yl)-N-(tetrahydrofuran-3-yl)thiophene-2-carboxamide]
22 | < 200 nM | > 1000 nM | 200 to 1000 nM | O=C(NC1COC1)c1cc(-n2ncc3cc(Nc4ccccc4Cl)c(F)cc32)cs1 [Compound 34, 4-(5-((2-chlorophenyl)amino)-6-fluoro-1H-indazol-1-yl)-N-(oxetan-3-yl)thiophene-2-carboxamide]
23 | < 200 nM | 200 to 1000 nM | 200 to 1000 nM | CC(C)N1CC[C@@H](NC(=O)c2cc(-n3ncc4cc(Nc5ccccc5Cl)ccc43)cs2)C1 [Compound 35, (R)-4-(5-((2-chlorophenyl)amino)-1H-indazol-1-yl)-N-(1-isopropylpyrrolidin-3-yl)thiophene-2-carboxamide]
24 | < 200 nM | < 200 nM | < 200 nM | COCCNC(=O)c1cc(-n2ncc3cc(Nc4ccccc4Cl)c(F)cc32)cs1 [Compound 37, 4-(5-((2-chlorophenyl)amino)-6-fluoro-1H-indazol-1-yl)-N-(2-methoxyethyl)thiophene-2-carboxamide]
25 | < 200 nM | < 200 nM | < 200 nM | O=C(NC1CCOCC1)c1cc(-n2ncc3cc(Nc4ccccc4Cl)c(F)cc32)cs1 [Compound 38, 4-(5-((2-chlorophenyl)amino)-6-fluoro-1H-indazol-1-yl)-N-(tetrahydro-2H-pyran-4-yl)thiophene-2-carboxamide]
26 | < 200 nM | < 200 nM | < 200 nM | O=C(NCC(F)F)c1cc(-n2ncc3cc(Nc4ccccc4Cl)c(F)cc32)cs1 [Compound 39, 4-(5-((2-chlorophenyl)amino)-6-fluoro-1H-indazol-1-yl)-N-(2,2-difluoroethyl)thiophene-2-carboxamide]
27 | < 200 nM | 200 to 1000 nM | < 200 nM | CC(=O)N1CC[C@H](NC(=O)c2cc(-n3ncc4cc(Nc5ccccc5Cl)c(F)cc43)cs2)C1 [Compound 40, (S)—N-(1-acetylpyrrolidin-3-yl)-4-(5-((2-chlorophenyl)amino)-6-fluoro-1H-indazol-1-yl)thiophene-2-carboxamide]
28 | < 200 nM | < 200 nM | < 200 nM | CC(C)NC(=O)c1cc(-n2ncc3cc(Nc4ccccc4Cl)c(F)cc32)cs1 [Compound 44, 4-(5-((2-chlorophenyl)amino)-6-fluoro-1H-indazol-1-yl)-N-isopropylthiophene-2-carboxamide]
29 | < 200 nM | > 1000 nM | 200 to 1000 nM | O=C(NC1COC1)c1cc(-n2ncc3nc(Nc4ccccc4Cl)ccc32)cs1 [Compound 52, 4-(5-((2-chlorophenyl)amino)-1H-pyrazolo[4,3-b]pyridin-1-yl)-N-(oxetan-3-yl)thiophene-2-carboxamide]
